According to patent publication US12012383B2, “Compositions and methods for inhibiting dihydroorotate dehydrogenase” (Clear Creek Bio, Inc., priority 2018, dated 2024):
Like-named read-outs stand apart in the source and are kept apart here.

What was measured:
[1] = system: solid malignancies; conditions: 43 patients; patient with papillary carcinoma of the thyroid (Schwartsmann); cited from earlier work
[2] = Adverse events in subjects receiving brequinar intravenously once a week (Example 2); assay type: in vivo, human; conditions: 209 subjects, i.v. once a week, median dose 1200 mg/m^2
[3] = system: acute myeloid leukemia (AML); assay: Clinical response of patients with AML to brequinar-containing composition (Examples 9-11); assay type: in vivo, human
[4] = target: DHODH (Homo sapiens, UniProt Q02127); conditions: for DHO plasma level threshold achieved: after a dose
[5] = system: mouse model of AML; conditions: daily administration of high doses; cited from earlier work
[6] = system: advanced malignancies; conditions: cited from earlier work
[7] = target: DHODH (Mus musculus, UniProt O35435); assay: Plasma DHO in mice after brequinar 50 mg/kg (FIG. 6); conditions: at about 84 hours, FIG. 6 dashed line
[8] = Example 9, first patient with AML, threshold 1,600 ng/mL
[9] = Example 10, second patient with AML, threshold 2,900 ng/mL
[10] = Example 11, patient with AML, threshold 133 ng/mL

Chain of DHODH (Homo sapiens, UniProt Q02127) (Q02127 whole entry): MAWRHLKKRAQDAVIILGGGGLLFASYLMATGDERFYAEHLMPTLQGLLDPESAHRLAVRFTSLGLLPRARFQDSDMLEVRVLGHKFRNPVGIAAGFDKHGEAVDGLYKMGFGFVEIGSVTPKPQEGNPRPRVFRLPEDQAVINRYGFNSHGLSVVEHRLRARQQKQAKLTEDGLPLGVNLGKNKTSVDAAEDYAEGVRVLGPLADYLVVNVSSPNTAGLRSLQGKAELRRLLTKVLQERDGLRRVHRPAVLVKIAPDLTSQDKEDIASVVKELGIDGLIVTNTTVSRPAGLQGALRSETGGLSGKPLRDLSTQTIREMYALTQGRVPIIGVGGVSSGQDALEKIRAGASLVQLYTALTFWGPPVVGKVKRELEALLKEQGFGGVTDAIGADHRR
Chain of DHODH (Mus musculus, UniProt O35435) (O35435 whole entry): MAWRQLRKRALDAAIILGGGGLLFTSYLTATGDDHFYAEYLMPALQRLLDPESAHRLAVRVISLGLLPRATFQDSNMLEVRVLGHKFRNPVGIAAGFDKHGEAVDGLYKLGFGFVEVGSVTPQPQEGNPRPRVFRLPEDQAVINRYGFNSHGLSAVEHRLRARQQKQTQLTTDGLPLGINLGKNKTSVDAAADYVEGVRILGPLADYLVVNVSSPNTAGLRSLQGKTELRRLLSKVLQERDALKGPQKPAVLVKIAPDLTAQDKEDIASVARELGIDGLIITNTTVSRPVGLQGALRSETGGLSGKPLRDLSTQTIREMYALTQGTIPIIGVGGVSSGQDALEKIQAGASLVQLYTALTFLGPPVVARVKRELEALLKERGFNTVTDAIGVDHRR

SMILES: Cc1c(-c2ccc(-c3ccccc3F)cc2)nc2ccc(F)cc2c1C(=O)O [Brequinar sodium]
- tumor response observed [1]: One mixed response

SMILES: Cc1c(-c2ccc(-c3ccccc3F)cc2)nc2ccc(F)cc2c1C(=O)O [brequinar, 6-fluoro-2-(2′-fluoro-1,1′ biphenyl-4-yl)-3-methyl-4-quinoline carboxylic acid]
- Dyspepsia: No. of Patients Experiencing the AE, Max Grade 1 [2]: 6
- clinical response ([3]; Example 9, first patient with AML, bone marrow blast count, extramedullary hematopoiesis, differentiation of peripheral blasts): positive response
- clinical response ([3]; Example 10, second patient with AML, peripheral blasts, absolute neutrophil count, differentiation of peripheral blasts): positive response
- clinical response ([3]; Example 11, patient with AML, trend towards differentiation of peripheral blasts): positive response
- DHO plasma level threshold achieved ([4]; Example 9, first patient with AML): ≥ 1,600 ng/mL
- time remained above DHO threshold [4, 8]: 84 h
- time to achieve DHO plasma level threshold [4, 8]: less than 24 hours
- DHO plasma level threshold achieved ([4]; Example 10, second patient with AML): ≥ 2,900 ng/mL
- time remained above DHO threshold [4, 9]: 84 h
- time to achieve DHO plasma level threshold [4, 9]: < 24 h
- DHO plasma level threshold achieved ([4]; Example 11, patient with AML): ≥ 133 ng/mL
- time remained above DHO threshold [4, 10]: 84 h
- time to achieve DHO plasma level threshold [4, 10]: less than 2 hours
- toxicity in mouse model of AML [5]: weight loss, anemia, and thrombocytopenia
- effect of combination on individual drug pharmacokinetic parameters ([6]; 650 mg/m^2 brequinar with 75 mg/m^2 cisplatin (Burris)): without significant modifications of individual drug pharmacokinetic parameters
- brequinar dose that can be administered with full dose cisplatin ([6]; brequinar days 1, 8 and 15 with 75 mg/m^2 cisplatin day 1, 28-day cycle (Burris)): 650 mg/m^2
- concentration of DHO remaining in the plasma [7]: about 100 ng/mL
